In ChEMBL document CHEMBL5096202, “Carbon-silicon switch led to the discovery of novel synthetic cannabinoids with therapeutic effects in a mouse model of multiple sclerosis” (Eur J Med Chem, 2021):

Legend:
Cannabinoid receptor 1 [1] = target: T1, Cannabinoid receptor 1 (Homo sapiens, UniProt P21554); test: Agonist activity at recombinant human CB1 receptor expressed in CHO cells assessed as inhibition of forskolin-induced cAMP accumulation preincubated for 15 mins followed by forskolin stimulation and measured after 15 mins by HTRF assay; type: functional, cell-based
Cannabinoid receptor 1 [2] = target: T1, Cannabinoid receptor 1; test: Displacement of [3H]-CP55940 from recombinant human CB1 receptor expressed in CHO cells assessed as inhibition constant incubated for 120 mins by radioligand binding assay; type: cell-based
Cannabinoid receptor 1 [3] = target: T1, Cannabinoid receptor 1; test: Agonist activity at recombinant human CB1 receptor expressed in CHO cells assessed as inhibition of forskolin-induced cAMP accumulation by measuring maximum efficacy preincubated for 15 mins followed by forskolin stimulation and measured after 15 mins by HTRF assay relative to control; type: functional, cell-based; conditions: filed as agonist, time 30.0 min
Cannabinoid receptor 2 [4] = target: T2, Cannabinoid receptor 2 (Homo sapiens, UniProt P34972); test: Agonist activity at recombinant human CB2 receptor expressed in CHO cells assessed as inhibition of forskolin-induced cAMP accumulation preincubated for 15 mins followed by forskolin stimulation and measured after 15 mins by HTRF assay; type: functional, cell-based
Cannabinoid receptor 2 [5] = target: T2, Cannabinoid receptor 2; test: Agonist activity at recombinant human CB2 receptor expressed in CHO cells assessed as inhibition of forskolin-induced cAMP accumulation by measuring maximum efficacy preincubated for 15 mins followed by forskolin stimulation and measured after 15 mins by HTRF assay relative to control; type: functional, cell-based; conditions: filed as agonist, time 30.0 min
Cannabinoid receptor 2 [6] = target: T2, Cannabinoid receptor 2; test: Displacement of [3H]-CP55940 from recombinant human CB2 receptor expressed in CHO cells assessed as inhibition constant incubated for 120 mins by radioligand binding assay; type: cell-based
[7] = Metabolic stability in rat liver microsomes assessed as intrinsic clearance; type: ADME, Microsome; conditions: read-out: CLH
[8] = Metabolic stability in mouse liver microsomes assessed as intrinsic clearance; type: ADME, Microsome; conditions: read-out: CLH
[9] = Metabolic stability in human liver microsomes assessed as half life; type: ADME, Microsome
[10] = Metabolic stability in mouse liver microsomes assessed as half life; type: ADME, Microsome
[11] = Metabolic stability in human liver microsomes assessed as intrinsic clearance; type: ADME, Microsome; conditions: read-out: CLH
[12] = Metabolic stability in rat liver microsomes assessed as half life; type: ADME, Microsome

T1 sequence (P21554 whole entry): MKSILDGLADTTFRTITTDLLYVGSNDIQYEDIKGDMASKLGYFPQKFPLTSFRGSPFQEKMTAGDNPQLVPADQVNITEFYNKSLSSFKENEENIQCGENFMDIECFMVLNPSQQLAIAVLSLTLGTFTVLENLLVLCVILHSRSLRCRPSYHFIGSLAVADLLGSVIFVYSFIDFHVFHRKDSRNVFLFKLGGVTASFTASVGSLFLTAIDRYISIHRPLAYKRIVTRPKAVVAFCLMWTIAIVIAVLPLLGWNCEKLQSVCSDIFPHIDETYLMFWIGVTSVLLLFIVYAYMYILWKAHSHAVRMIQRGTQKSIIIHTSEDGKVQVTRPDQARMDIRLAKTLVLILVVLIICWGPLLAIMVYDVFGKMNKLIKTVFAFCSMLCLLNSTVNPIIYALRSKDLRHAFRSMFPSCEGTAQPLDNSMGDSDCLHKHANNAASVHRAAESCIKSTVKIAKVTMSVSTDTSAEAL
T2 sequence (P34972 whole entry): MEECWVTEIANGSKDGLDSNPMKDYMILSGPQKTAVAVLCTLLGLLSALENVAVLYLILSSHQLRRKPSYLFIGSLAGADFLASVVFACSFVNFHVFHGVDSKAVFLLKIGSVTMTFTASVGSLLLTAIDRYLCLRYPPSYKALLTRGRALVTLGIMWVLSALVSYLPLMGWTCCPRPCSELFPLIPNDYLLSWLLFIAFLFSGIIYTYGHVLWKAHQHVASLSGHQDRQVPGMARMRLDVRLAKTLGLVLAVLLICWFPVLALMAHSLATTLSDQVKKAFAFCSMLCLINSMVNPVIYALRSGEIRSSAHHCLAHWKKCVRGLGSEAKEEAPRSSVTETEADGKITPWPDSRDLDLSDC

| Structure (SMILES) | EC50 (Cannabinoid receptor 1 [1]) | Ki (Cannabinoid receptor 1 [2]) | Emax (Cannabinoid receptor 1 [3]) | EC50 (Cannabinoid receptor 2 [4]) | Emax (Cannabinoid receptor 2 [5]) | Ki (Cannabinoid receptor 2 [6]) | CLint scaled [7] | CLint scaled [8] | half-life [9] | half-life [10] | CLint scaled [11] | half-life [12] |
| --- | --- | --- | --- | --- | --- | --- | --- | --- | --- | --- | --- | --- |
| CCCCCC[Si](C)(C)c1cc(O)c(C2CCCCCC2)c(O)c1 | 129 nM | 17.7 nM | 98% | 165 nM | 92% | 6.53 nM | – | – | – | – | – | – |
| CCCCCC[Si](C)(C)c1cc(O)c2c(c1)OC(C)(C)[C@@H]1CC=C(CO)C[C@@H]21 | 6.58 nM | 0.43 nM | 105% | 61.3 nM | – | 0.97 nM | – | – | – | – | – | – |
| CCCCCCC(C)(C)c1cc(OC)c([C@H]2C=C(CO)[C@H]3C[C@@H]2C3(C)C)c(OC)c1 | – | – | – | – | 101% | – | 137 mL/min/kg | 696 mL/min/kg | 20.4 min | 7.84 min | 85.4 mL/min/kg | 18.2 min |
| CCCC[Si](C)(C)c1cc(OC)c([C@H]2C=C(CO)[C@H]3C[C@@H]2C3(C)C)c(OC)c1 | – | 454 nM | – | 899 nM | 83.6% | 227 nM | – | – | – | – | – | – |
| CCCCCC[Si](C)(C)c1cc(O)c(C2CCCC2)c(O)c1 | – | 64.2 nM | – | 446 nM | 104% | 42.3 nM | – | – | – | – | – | – |
| CCCC[Si](C)(C)c1cc(O)c(C2CCCC2)c(O)c1 | – | 464 nM | – | 53.8 nM | 102% | 368 nM | – | – | – | – | – | – |
| CCCC[Si](C)(C)c1cc(O)c(C2CCCCCC2)c(OC)c1 | – | – | – | 475 nM | 93.3% | 616 nM | – | – | – | – | – | – |
| C=C(C)[C@@H]1CCC(C)=C[C@H]1c1c(O)cc([Si](C)(C)CCCC)cc1O | 403 nM | 15 nM | 94.6% | 190 nM | 82.7% | 7.25 nM | – | – | – | – | – | – |
| CCCCCC[Si](C)(C)c1cc(O)c(C2CCCCC2)c(O)c1 | 453 nM | 17.7 nM | 98.6% | 55 nM | 95.5% | 9.08 nM | – | – | – | – | – | – |
| CCCCCC[Si](C)(C)c1cc(O)c2c(c1)OC(C)(C)c1ccc(CO)cc1-2 | 59.1 nM | 0.35 nM | 93% | 27400 nM | 92.7% | 1.25 nM | – | – | – | – | – | – |
| CCCC[Si](C)(C)c1cc(O)c(C2CCCC2)c(OC)c1 | – | 600 nM | – | 1000 nM | 85.4% | 903 nM | – | – | – | – | – | – |
| CCCCCC[Si](C)(C)c1cc(O)c(C2CCCCCC2)c(OC)c1 | 3120 nM | 182 nM | 67.8% | 82.7 nM | 98.7% | 67.2 nM | – | – | – | – | – | – |
| CCCCCC[Si](C)(C)c1cc(O)c([C@H]2C=C(CO)[C@H]3C[C@@H]2C3(C)C)c(O)c1 | 248 nM | 14.3 nM | 102% | 63.5 nM | 94.1% | 11.4 nM | – | – | – | – | – | – |
| CCCCCC[Si](C)(C)c1cc(O)c2c(c1)OC(C)(C)[C@@H]1CCC(C)=C[C@@H]21 | 5.94 nM | 0.8 nM | 99.2% | 20.2 nM | 90.2% | 7.41 nM | – | – | – | – | – | – |
| CCCC[Si](C)(C)c1cc(O)c(C2CCCCC2)c(O)c1 | – | 241 nM | – | 25.3 nM | 95.2% | 31.4 nM | – | – | – | – | – | – |
| CCCC[Si](C)(C)c1cc(O)c(C2CCCCC2)c(OC)c1 | – | 671 nM | – | 707 nM | 90.4% | 396 nM | – | – | – | – | – | – |
| CCCCCC[Si](C)(C)c1cc(O)c(C2CCCC2)c(OC)c1 | 709 nM | 74.8 nM | 81.6% | 236 nM | 89.8% | 167 nM | – | – | – | – | – | – |
| CCCC[Si](C)(C)c1cc(O)c(C2CCCCCC2)c(O)c1 | 836 nM | 143 nM | 65% | 84.4 nM | 93.4% | 63.5 nM | – | – | – | – | – | – |
| CCCC[Si](C)(C)c1cc(O)c2c(c1)OC(C)(C)c1ccc(C)cc1-2 | 400 nM | 5.15 nM | 102% | 268 nM | 90.4% | 5.01 nM | – | – | – | – | – | – |
| CCCC[Si](C)(C)c1cc(O)c2c(c1)OC(C)(C)[C@@H]1CC=C(CO)C[C@@H]21 | 35.2 nM | 2.28 nM | 102% | 8340 nM | 91.2% | 0.65 nM | – | – | – | – | – | – |
| CCCCCC[Si](C)(C)c1cc(O)c2c(c1)OC(C)(C)c1ccc(C)cc1-2 | 12.3 nM | 0.79 nM | 98.4% | 32.6 nM | 862% | 2.21 nM | – | – | – | – | – | – |
| CCCC[Si](C)(C)c1cc(O)c2c(c1)OC(C)(C)[C@@H]1CCC(C)=C[C@@H]21 | 13.9 nM | 2.33 nM | 99.6% | 65.1 nM | 95.4% | 1.48 nM | – | – | – | – | – | – |
| C=C(C)[C@@H]1CCC(C)=C[C@H]1c1c(O)cc(CCCCC)cc1O [CANNABIDIOL] | – | – | – | – | – | – | 4900 mL/min/kg | 1720 mL/min/kg | 4.46 min | 1.11 min | 390 mL/min/kg | 1.44 min |
| CC[Si](C)(C)c1cc(O)c2c(c1)OC(C)(C)[C@@H]1CCC(C)=C[C@@H]21 | – | 19.3 nM | – | 352 nM | 84.8% | 1070 nM | – | – | – | – | – | – |
| CCCCCC[Si](C)(C)c1cc(O)c(C2CCCCC2)c(OC)c1 | 554 nM | 448 nM | 73.9% | 76.4 nM | 92.7% | 165 nM | – | – | – | – | – | – |
| CCCC[Si](C)(C)c1cc(O)c2c(c1)OC(C)(C)c1ccc(CO)cc1-2 | 214 nM | 2.79 nM | 94.8% | 267 nM | 92.8% | 3.49 nM | – | – | – | – | – | – |
